# Laboratory results reported in patent publication US20120149663A1, “BORONIC ACID COMPOSITIONS AND METHODS RELATED TO CANCER” (GEORGETOWN UNIVERSITY, priority 2009, published 2012).
# Where two headings read alike, the source gives them in different places.
# Legend:
# MCF-7 cells [1] = experiment: Combination with flavopiridol, WST-1 cell viability; format: cell-based, human; details: for GI50: Homo sapiens, MCF7; for Sensitization to flavopiridol (in words): MCF-7
# Description: A Wst-1 assay was performed to measure the cell viability as mentioned in the methods. GI50 are the average of triplicate samples and the experiment was repeated thrice with identical results. The effect of cis-4 and trans-4 or resveratrol on cell growth was determined by WST-1 assay. Briefly, cells were seeded into a 96-well plate at 3,500 cells per well in DMEM containing 10% FBS. After overnight incubation, cells were treated with the compounds (1-100 μM) for 48 h and 72 h at 37° C. Control cells were treated with an equal amount of DMSO. After the indicated incubation time, cell viability was measured by WST-1 assay according to the manufacturer's instructions (Roche). […] The water soluble tetrazolium salt of WST-1 is converted into orange formazan by dehydrogenase in the mitochondria of living cells. The formazan absorbance, which correlates to the number of living cells, was recorded at wavelengths of 450 nm and 630 nm using a microplate reader (Ultramark, Microplate Imaging System, Bio-Rad). The GI50 was calculated from the graph of the log of compound concentration versus the fraction of the surviving cells.
# [2] = system: ER+, estrogen-dependent human breast cancer MCF-7 cell line; experiment: Cell growth assay (WST-1 assay), MCF-7; format: cell-based; details: for MCF-7 cell growth inhibition (in words): MCF-7, WST-1
# Description: Results are the mean value of triplicate samples. […] Cell viability was finally determined by adding WST-1 reagent and measuring the optical absorbance at […] and 630 nm as described in “Materials and methods”. […] The IC50 for each cell line was calculated using graph pad prism. Data are expressed as mean (SEM) of triplicate samples. […] The IC50 for each cell line was calculated using graph pad prism. Data are expressed as mean (SEM) of triplicate sample. ER-Positive (MCF-7) human breast carcinoma cell line was used in this study. The human breast cell lines MCF-7 (HTB-22) were provided by the tissue culture core facility at Lombardi Comprehensive Cancer Center, Georgetown University Medical Center. […] Robert Clarke from the Georgetown University Medical Center. […] The effect of cis-4 and trans-4 or resveratrol on cell growth was determined by WST-1 assay. Briefly, cells were seeded into a 96-well plate at 3,500 cells per well in DMEM containing 10% FBS. After overnight incubation, cells were treated with the compounds (1-100 μM) for 48 h and 72 h at 37° C. Control cells were treated with an equal amount of DMSO. After the indicated incubation time, cell viability was measured by WST-1 assay according to the manufacturer's instructions (Roche). […] The water soluble tetrazolium salt of WST-1 is converted into orange formazan by dehydrogenase in the mitochondria of living cells. The formazan absorbance, which correlates to the number of living cells, was recorded at wavelengths of 450 nm and 630 nm using a microplate reader (Ultramark, Microplate Imaging System, Bio-Rad). The GI50 was calculated from the graph of the log of compound concentration versus the fraction of the surviving cells.
# MCF-7 cells [3] = details: MCF-7, 300 μM, Clin Cancer Res 2002; cited from earlier work
# MCF-7 cells [4] = experiment: Cell cycle analysis by flow cytometry (propidium iodide); format: cell-based, human; details: MCF-7, 30 μM, 16, 24, 48 h
# Description: FIGS. 10A and 10B show the effect of compounds on cell cycle distribution in MCF-7 breast cancer cell lines. A. […] B. Percentage of DNA distribution of trans-4 in G1 phase was presented in a bar graph. Results are represented as a mean of triplicate samples. The experiment was repeated thrice with identical results. The effect of cis-4, trans-4 or resveratrol on cell cycle progression was analyzed by flow cytometry. Cells were seeded in 6-well plates and treated with 30 μM of compound 1 or 2 at different time intervals (16, 24, 48 h). Cells were trypsinized, centrifuged at 2000 rpm and cell pellets were collected. Pellets were washed with 1×PBS, permeabilized with 70% (v/v) ethanol, resuspended in 1 ml of PBS containing 1 mg/ml RNase and […] propidium iodide, incubated in the dark for 30 min at room temperature, and analysed by a FACSort Flow Cytometer (Becton Dickinson, San jose, CA). The cell cycle distribution was evaluated on DNA plots using the Modfit software (Verity softwarehouse, Topsham, Me.).
# [5] = system: E2-mediated MCF-7 cell growth; experiment: DNA content in estrogen mediated MCF-7 cell growth; format: cell-based, human; details: E2 10^−9M constant
# Description: After 5 days incubation, the DNA content of the treated cells was measured using a DNA fluorescence kit (Bio Rad #170-2480). Results are shown as the mean of triplicate samples±SD. The experiment was repeated twice with identical results. […] Cells were then seeded in 24 well plates at 10000 cells per well in 1 ml of estrogen depleted media. […] Cells were incubated at 37° C. for an additional 4 days. Media were removed and cells were frozen at −78° C. overnight and the DNA content in each well was measured according to the manufacturer's protocol (DNA Quantification Kit, Bi0-Rad). Results are represented as mean of triplicate sample and repeated the experiment with identical results.
# [6] = system: cdk4, cdk2, cyclin E, cyclin D1 and pRb in MCF-7 cells; experiment: Western blot of G1 cell cycle proteins; format: cell-based, human; details: MCF-7, 24 h and 48 h, immunoblot
# Description: MCF-7 cells were treated with the indicated concentrations of compound 2 for 24 hours and 48 hours and cell lysates were analyzed by immunoblotting. Protein expression of positive regulators such as cyclin D1, Cdk4, cyclinE, Cdk2 and phospho-Rb were detected by their specific antibodies. Human β-actin was analyzed as a control of gel loading. Twenty-micrograms of lysate was used for each experimental condition.
# Western blotting was performed as previously published (J Biol Chem 2004, 279, 38903-38911). In brief, cell pellets were collected at the indicated times after treatment with compounds, suspended in 100 μl, of lysis buffer (50 mM Tris-HCl, 150 mM NaCl, 1 mM EGTA, 1 mM EDTA, 20 mM NaF, […], 0.5% NP-40, 1% Triton X-100, 1 mM PMSF, 5 μg/ml aprotinin, 5 μg/ml leupeptin), vortexed twice and incubated in an ice bath for 30 min Lysates were cleared by centrifugation at 12000 rpm for 15 min at 4° C. and protein was estimated by detergent compatible BCA protein assay kit (Pierce). Equivalent amounts of total proteins were resolved by SDS-PAGE (10%) and transferred to PVDF membranes. Membranes were blocked by 5% non-fat powdered milk in TBST overnight. […]
# [7] = Stability compared with resveratrol; format: physicochemical
# [8] = system: CL 10.3 cells (MCF-7 MDR, over-expresses the MDR gene); experiment: Cell growth assay (WST-1 assay), multidrug resistant CL 10.3; format: cell-based, human; details: for GI50: CL 10.3 Breast (MDR), 72 h, read-out: Cell Survival (WST-1 assay, GI50, 72 h) CL 10.3; for Activity in multidrug resistant cells (in words): CL 10.3 compared with MCF-7; for MDR GI50/non-MDR GI50: CL 10.3 versus MCF-7, 72 h; for P-glycoprotein substrate (in words): inferred from activity in MDR cell line CL 10.3
# Description: IC50 value (the concentration yielding 50% growth inhibition) was extrapolated from the graph of the log of compound concentration versus the fraction of surviving cells. The 1050 for each cell line was calculated using graph pad prism. Data are expressed as mean (SEM) of triplicate sample. Results are mean value of triplicate samples.
# ER-Positive (MCF-7) human breast carcinoma cell line was used in this study. The human breast cell lines MCF-7 (HTB-22) were provided by the tissue culture core facility at Lombardi Comprehensive Cancer Center, Georgetown University Medical Center. MCF-7^MDR (CL 10.3) cells were a gift from Dr. Robert Clarke from the Georgetown University Medical Center. MCF-7, and CL 10.3 cells were maintained in DMEM (Biofluids, Frederick, Md.) supplemented 10% heat inactivated fetal bovine serum (FBS), 2 mM L-glutamine, and 50 μg/mL each of antibiotics, namely penicillin, streptomycin, and neomycin at 37° C. in a humidified incubator containing 5% CO2.
# The effect of cis-4 and trans-4 or resveratrol on cell growth was determined by WST-1 assay. Briefly, cells were seeded into a 96-well plate at 3,500 cells per well in DMEM containing 10% FBS. After overnight incubation, cells were treated with the compounds (1-100 μM) for 48 h and 72 h at 37° C. Control cells were treated with an equal amount of DMSO. After the indicated incubation time, cell viability was measured by WST-1 assay according to the manufacturer's instructions (Roche). Briefly, 20 μL of WST-1 solution was added in each well and incubated for 2-4 hours. The water soluble tetrazolium salt of WST-1 is converted into orange formazan by dehydrogenase in the mitochondria of living cells. The formazan absorbance, which correlates to the number of living cells, was recorded at wavelengths of 450 nm and 630 nm using a microplate reader (Ultramark, Microplate Imaging System, Bio-Rad). The GI50 was calculated from the graph of the log of compound concentration versus the fraction of the surviving cells.
# [9] = MCF-7, 48 h, read-out: Cell Survival (WST-1 assay, GI50) 48 hours
# [10] = MCF-7, 72 h, read-out: Cell Survival (WST-1 assay, GI50) 72 hours
compound,measurement,setting,value
"CN1CC[C@H](c2c(O)cc(O)c3c(=O)cc(-c4ccccc4Cl)oc23)[C@H](O)C1 [flavopiridol, reference compound]",GI50,"MCF-7 cells [1]; MCF-7, 10 μM trans-4 for 24 hours then flavopiridol 48 hours, read-out: GI50, combination of trans-4 with flavopiridol",0.018 µM
same,GI50,"MCF-7 cells [1]; MCF-7, flavopiridol alone, 48 h, read-out: GI50, flavopiridol only",0.3 µM
"Oc1ccc(C=Cc2cc(O)cc(O)c2)cc1 [Resveratrol, reference compound]",GI50,"[2]; Homo sapiens, MCF7, MCF-7, 48 h, read-out: Cell Survival (WST-1 assay, GI50) 48 hours",[…]
same,Cell cycle arrest by resveratrol in previous studies (in words),MCF-7 cells [3],S-phase cell cycle arrest
same,Sensitization to flavopiridol (in words),MCF-7 cells [1],does not sensitize the MCF-7 cells incubated with flavopiridol
same,Effect on cell cycle distribution (in words),MCF-7 cells [4],works at the G2/M1 phase
same,Effect on E2-mediated MCF-7 cell growth (in words),[5],antagonizes E2-mediated MCF-7 cell growth
"[(Z)-2-(3,5-dimethoxyphenyl)vinyl]phenylboronic Acid [cis-4]",GI50,[2]; [9],> 100 µM
same,GI50,[2]; [10],> 100 µM
same,MCF-7 cell growth inhibition (in words),[2],does not show any growth inhibition at 100 μM
"COc1ccc(/C=C/c2cc(OC)c(OC)c(OC)c2)cc1B(O)O [trans-4, 2-Methoxy-5-[(E)-2-(3,4,5-trimethoxyphenyl)vinyl]boronic acid]",GI50,[2]; [9],36.6 µM
same,GI50,[2]; [10],31.1 ± 0.05 µM
same,Activity relative to Resveratrol,[2]; breast cancer,3 fold
same,Expression level of G1 cell cycle proteins (in words),[6]; listed as YK-5-104,decreases the pRb levels
same,Expression level of G1 cell cycle proteins (in words),[6]; listed as compound 2,"decreases the expression level of cdk4, cdk2, cyclin E, cyclin D1 and pRb"
same,Sensitization to flavopiridol (in words),MCF-7 cells [1],modulates the flavopiridol mediated cell viability
same,Fold increase in growth inhibition compared with trans-4,"MCF-7 cells [1]; MCF-7, opposite administration: 100 nM flavopiridol 24 hours then trans-4",7 fold
same,Fold increase of flavopiridol mediated growth inhibition compared with flavopiridol alone,"MCF-7 cells [1]; MCF-7, trans-4 then flavopiridol",16.6 fold
same,Stability compared with Resveratrol (in words),[7],more stable than Resveratrol
same,GI50,[8],49.09 ± 0.001 µM
same,Activity in multidrug resistant cells (in words),[8],equipotent in CL 10.3 and MCF-7 cells
same,Activity in multidrug resistant cells (in words),[8]; listed as Compound 2,can work on multidrug resistant cell lines
same,MDR GI50/non-MDR GI50,[8],1.57
same,P-glycoprotein substrate (in words),[8],likely not a substrate for P-glycoprotein
same,P-glycoprotein substrate (in words),[8]; listed as YK-5-104,not a substrate for p-glycoprotein
same,Effect on E2-mediated MCF-7 cell growth (in words),[5],does not have any effect on E2-induced cell growth
"CC(=O)O[C@H]1C(=O)[C@@]2(C)[C@H]([C@H](OC(=O)c3ccccc3)[C@]3(O)C[C@H](OC(=O)[C@H](O)[C@@H](NC(=O)c4ccccc4)c4ccccc4)C(C)=C1C3(C)C)[C@]1(OC(C)=O)CO[C@@H]1C[C@@H]2O [Paclitaxel, reference compound]",MCF-7 cell growth inhibition (in words),[2],strongly inhibits MCF-7 cell growth
same,Activity in multidrug resistant cells (in words),[8],has no effect on CL 10.3 cells
same,MDR GI50/non-MDR GI50,[8],">25,000"
same,GI50,"[8]; Homo sapiens, MCF7",> 50 µM
